{"source": "patent US20200345746A1", "about": "“Oxazine Derivative for Use in the Prevention of Alzheimer's Disease in at Risk Patents” (Novartis AG, priority 2016, published 2020)", "key": {"Aβ40": {"system": "Aβ40", "assay": "Acute PK/PD in APOE4-TR mice: Aβ40 in brain", "assay_type": "in vivo, mouse", "details": "for Average Aβ40 brain ± SD: n = 6; for Aβ40 reduction vs vehicle, range over the doses: APOE4-TR mice, 3, 10 and 30 μmol/kg", "protocol": "Compound 1 was formulated as a suspension. Vehicle or compound was given by oral administration in a volume of 10 ml/kg once. Vehicle: 0.1% Tween80 in 0.5% Methylcellulose in water.\nFrozen mouse forebrains were weighed and homogenized in 9 volumes (w/v) of ice-cold TBS-Complete (20 mM Tris-HCl pH 7.4, 137 mM NaCl, 1× Complete [Protease Inhibitor Cocktail Tablets: 1 836 145, Roche Diagnostics GmbH, Penzberg, Germany]) by sonication (90% duty cycle, output control 5, 40-55 pulses, [Sonifier 450, Branson]). After homogenization several 50 μl aliquots were prepared for analysis and were stored at −80° C.\nEndogenous Aβ40 in mice was determined with the Meso Scale Discovery (MSD) 96-well MULTI-ARRAY human/rodent (4G8) Aβ40 Ultrasensitive Assay (#K110FTE-3, Meso Scale Discovery, Gaithersburg, USA). The assay was performed according to the manufacturer's instructions except for the calibration curve and the sample preparations. TritonX-100 (TX-100) soluble Aβ40 was extracted from forebrain with 1% TX-100 using a 50 μl aliquot of each 1:10 forebrain homogenate, mixed with 50 μl 2% TX-100 in TBS complete (20 mM Tris-HCl pH 7.4, 137 mM NaCl, 1× Complete [Protease Inhibitor Cocktail Tablets: 1 836 145, Roche Diagnostics GmbH, Penzberg Germany]) to reach a final concentration of 1% TX-100 and a 1:20 forebrain dilution. The samples were incubated for 15 min on ice and vortexed every 5 min. The samples were ultra-centrifuged (100000×g, 4° C., 15 min) and 50 μl of the clear supernatants were transferred to fresh tubes. For the Aβ40 assay the supernatants were further diluted 1:5 in 3% Blocker A solution (from kit) to a final forebrain dilution of 1:100 and applied to the plate.\nThe calibration curve was prepared in a corresponding dilution of 1% Blocker A solution spiked with synthetic Aβ1-40 peptide (1.56-100 pg/ml) except for non-transgenic mouse brain samples: In this case, the calibration curve was prepared in a correspondingly diluted APP knockout mouse forebrain spiked with synthetic Aβ1-40 peptide (1.56-100 pg/ml). For all samples and standards 25 μl were applied per well. For each determination duplicate wells were done. The mean values from the duplicate wells were used for calculations."}, "[1]": {"assay": "3-month dose-ranging study: safety and tolerability", "assay_type": "in vivo, human", "details": "healthy elderly subjects, once-daily 2, 10, 35 and 85 mg over three months", "text": "(§1) This study is listed in ClinicalTrials.gov under the NCT02576639 Identifier code.\n(§2) The primary purpose of this study was to expand on previous safety and tolerability data obtained over 2-week and 4-week duration in the first in human study and thereby allow initiation of future long-term efficacy trials in subjects at risk of AD. In addition, data relevant for Pharmacokinetic/Pharmacodynamic modeling was obtained in order to support dose selection decisions for future efficacy studies."}, "Aβ38": {"system": "Aβ38", "assay": "3-month dose-ranging study: Aβ38 in CSF", "assay_type": "in vivo, human", "text": "as §1, §2"}, "[2]": {"details": "APOE4-TR mice, 30 μmol/kg acute"}}}
{"smiles": "C[C@@]1(c2nc(NC(=O)c3ncc(C(F)(F)F)cc3Cl)ccc2F)CO[C@@](C)(C(F)(F)F)C(N)=N1", "note": "[Compound 1, N-(6-((3R,6R)-5-amino-3,6-dimethyl-6-(trifluoromethyl)-3,6-dihydro-2H-1,4-oxazin-3-yl)-5-fluoropyridin-2-yl)-3-chloro-5-(trifluoromethyl)picolinamide]", "values": [{"measurement": "Mini AUEC (brain Aβ40)", "setting": "Aβ40; APOE4-TR mice, 3 μmol/kg acute", "result": 32, "unit": "%"}, {"measurement": "Average Aβ40 brain ± SD", "setting": "Aβ40; APOE4-TR mice, 3 μmol/kg acute p.o., 4 h", "result": "0.114 ± 0.024", "unit": "pmol/g"}, {"measurement": "Average Aβ40 brain ± SD", "setting": "Aβ40; APOE4-TR mice, 3 μmol/kg acute p.o., 24 h", "result": "0.160 ± 0.033", "unit": "pmol/g"}, {"measurement": "% reduction vs vehicle (brain Aβ40)", "setting": "Aβ40; APOE4-TR mice, 3 μmol/kg acute, 4 h", "result": 43, "unit": "%"}, {"measurement": "% reduction vs vehicle (brain Aβ40)", "setting": "Aβ40; APOE4-TR mice, 3 μmol/kg acute, 24 h", "result": 20, "unit": "%"}, {"measurement": "Mini AUEC (brain Aβ40)", "setting": "Aβ40; APOE4-TR mice, 10 μmol/kg acute", "result": 47, "unit": "%"}, {"measurement": "Average Aβ40 brain ± SD", "setting": "Aβ40; APOE4-TR mice, 10 μmol/kg acute p.o., 4 h", "result": "0.074 ± 0.014", "unit": "pmol/g"}, {"measurement": "Average Aβ40 brain ± SD", "setting": "Aβ40; APOE4-TR mice, 10 μmol/kg acute p.o., 24 h", "result": "0.139 ± 0.041", "unit": "pmol/g"}, {"measurement": "% reduction vs vehicle (brain Aβ40)", "setting": "Aβ40; APOE4-TR mice, 10 μmol/kg acute, 4 h", "result": 63, "unit": "%"}, {"measurement": "% reduction vs vehicle (brain Aβ40)", "setting": "Aβ40; APOE4-TR mice, 10 μmol/kg acute, 24 h", "result": 31, "unit": "%"}, {"measurement": "Mini AUEC (brain Aβ40)", "setting": "Aβ40; [2]", "result": 72, "unit": "%"}, {"measurement": "maximal effect on Aβ reduction in the brain", "setting": "Aβ40; [2]", "result": "> 70", "unit": "%"}, {"measurement": "Average Aβ40 brain ± SD", "setting": "Aβ40; APOE4-TR mice, 30 μmol/kg acute p.o., 4 h", "result": "0.046 ± 0.006", "unit": "pmol/g"}, {"measurement": "Average Aβ40 brain ± SD", "setting": "Aβ40; APOE4-TR mice, 30 μmol/kg acute p.o., 24 h", "result": "0.068 ± 0.021", "unit": "pmol/g"}, {"measurement": "% reduction vs vehicle (brain Aβ40)", "setting": "Aβ40; APOE4-TR mice, 30 μmol/kg acute, 4 h", "result": 77, "unit": "%"}, {"measurement": "% reduction vs vehicle (brain Aβ40)", "setting": "Aβ40; APOE4-TR mice, 30 μmol/kg acute, 24 h", "result": 66, "unit": "%"}, {"measurement": "Aβ40 reduction vs vehicle, range over the doses", "setting": "Aβ40; 4h", "result": "43-77%"}, {"measurement": "Aβ40 reduction vs vehicle, range over the doses", "setting": "Aβ40; 24h", "result": "20-66%"}, {"measurement": "safety and tolerability", "setting": "[1]", "result": "safe and tolerated"}, {"measurement": "Aβ38 in CSF percent change from baseline, Difference (90% CI) Cmpd 1-Placebo", "setting": "Aβ38; month 3, 2 mg QD", "result": "−18.17 (−21.49, −14.85) %"}, {"measurement": "Aβ38 in CSF percent change from baseline, LSmean (SE)", "setting": "Aβ38; month 3, 2 mg QD", "result": "−20.58 (1.397) %"}, {"measurement": "Aβ38 in CSF percent change from baseline, Difference (90% CI) Cmpd 1-Placebo", "setting": "Aβ38; month 3, 10 mg QD", "result": "−60.18 (−63.54, −56.83) %"}, {"measurement": "Aβ38 in CSF percent change from baseline, LSmean (SE)", "setting": "Aβ38; month 3, 10 mg QD", "result": "−62.60 (1.430) %"}, {"measurement": "Aβ38 in CSF percent change from baseline, Difference (90% CI) Cmpd 1-Placebo", "setting": "Aβ38; month 3, 35 mg QD", "result": "−80.55 (−83.83, −77.27) %"}, {"measurement": "Aβ38 in CSF percent change from baseline, LSmean (SE)", "setting": "Aβ38; month 3, 35 mg QD", "result": "−82.96 (1.366) %"}, {"measurement": "Aβ38 in CSF percent change from baseline, Difference (90% CI) Cmpd 1-Placebo", "setting": "Aβ38; month 3, 85 mg QD", "result": "−86.81 (−90.22, −83.41) %"}, {"measurement": "Aβ38 in CSF percent change from baseline, LSmean (SE)", "setting": "Aβ38; month 3, 85 mg QD", "result": "−89.23 (1.470) %"}]}
